# According to paper PMC3622683, “Purification, Gene Cloning, and Biochemical Characterization of a β-Glucosidase Capable of Hydrolyzing Sesaminol Triglucoside from Paenibacillus sp. KB0549” (PLoS ONE, 2013):
# Target: T1, rPSTG (recombinant PSTG, STG-hydrolyzing β-glucosidase) (Paenibacillus relictisesami, UniProt D6RVX0)
# T1 construct: full-length 753 aa, 83,298 Da, no signal peptide; expressed from pDEST17 in E. coli BL21-AI, HisTrap purified (tag cleavage not mentioned); likely tetramer, 310 kDa; GH3
# T1 sequence (D6RVX0 1-753): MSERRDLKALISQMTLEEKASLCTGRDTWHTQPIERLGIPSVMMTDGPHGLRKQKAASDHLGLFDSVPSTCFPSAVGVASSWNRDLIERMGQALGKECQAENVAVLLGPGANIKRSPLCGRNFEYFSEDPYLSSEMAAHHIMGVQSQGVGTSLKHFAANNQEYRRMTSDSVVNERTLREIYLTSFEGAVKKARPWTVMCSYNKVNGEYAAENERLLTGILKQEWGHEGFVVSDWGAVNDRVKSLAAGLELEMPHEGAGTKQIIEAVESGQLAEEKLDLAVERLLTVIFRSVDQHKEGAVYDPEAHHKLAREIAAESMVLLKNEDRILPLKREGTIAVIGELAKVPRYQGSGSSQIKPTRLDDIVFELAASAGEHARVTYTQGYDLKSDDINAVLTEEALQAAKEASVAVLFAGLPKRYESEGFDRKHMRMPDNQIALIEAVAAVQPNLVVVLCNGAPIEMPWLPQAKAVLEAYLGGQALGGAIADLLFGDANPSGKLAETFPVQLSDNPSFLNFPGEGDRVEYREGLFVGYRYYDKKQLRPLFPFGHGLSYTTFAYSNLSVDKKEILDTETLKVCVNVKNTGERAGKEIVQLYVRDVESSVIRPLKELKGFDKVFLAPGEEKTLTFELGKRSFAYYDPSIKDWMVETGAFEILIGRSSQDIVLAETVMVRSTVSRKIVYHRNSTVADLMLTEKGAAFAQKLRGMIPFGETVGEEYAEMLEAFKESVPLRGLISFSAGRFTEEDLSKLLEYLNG
# Assay: p-nitrophenol release, absorbance at […] nm
# Assay type: biochemical
# Settings: pH 7.0, 37°C, potassium phosphate
smiles,measurement,value
C[C@H]1O[C@@H](Oc2ccc([N+](=O)[O-])cc2)[C@H](O)[C@@H](O)[C@H]1O [pNP-β-D-fucopyranoside],Km,> 10 mM
